In this assay the target is T1, RORγ (Homo sapiens, UniProt P51449).
T1 construct: expressed in transfected cells; host or cells: 293FT cells (Invitrogen), expression vector pFN26A (Promega)
T1 sequence (P51449 269-508 limits assumed): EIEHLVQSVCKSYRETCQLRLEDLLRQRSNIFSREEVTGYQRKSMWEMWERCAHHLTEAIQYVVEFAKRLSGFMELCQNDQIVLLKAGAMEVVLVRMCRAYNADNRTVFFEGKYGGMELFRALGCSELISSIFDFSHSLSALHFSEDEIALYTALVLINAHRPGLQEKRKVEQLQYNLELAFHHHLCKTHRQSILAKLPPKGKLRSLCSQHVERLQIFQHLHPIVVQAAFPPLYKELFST
Description: RORγ GAL4 reporter gene assay. Type of assay: cell-based. The note with it: inhibition of RORγ activity, GAL4-RORγ-LBD luciferase reporter in 293FT cells, overnight incubation; read-out: mean pIC50 (converted). Here is the method: Example inhibitors 1-166 were tested for their ability to inhibit RORγ activity in a RORγ GAL4 reporter gene assay. The assay procedure and results are described below.
RORγ GAL4 Reporter Gene Assay Description
A GAL4 one-hybrid reporter system employing luciferase readout was established to determine inhibition of RORγ in 293FT cells. The RORγ ligand-binding domain (LBD) was fused to the yeast GAL4 DNA binding domain (DBD) and placed under the control of the human cytomegalovirus (CMV) immediate early promoter, using expression vector pFN26A (Promega) and standard recombinant DNA cloning methods. To serve as a control in the assay, a similar vector was generated in which the GAL4-DBD was fused to Herpes simplex virus protein 16 (VP16), a constitutive transcriptional activator.
To monitor the inhibitory effect of compounds on RORγ, a transcriptional reporter construct was used. The pGL4.35 vector (Promega) contains nine copies of the GAL4 Upstream Activator Sequence (UAS). This sequence drives the transcription of the luciferase reporter gene luc2P in response to binding of a fusion protein containing the GAL4 DNA binding domain, as for example expressed by the GAL4-RORγ-LBD and GAL4-VP16 expression vectors described above. To allow a GAL4 fusion protein to drive the expression of the luciferase reporter, the pGL4.35 expression vector and the appropriate GAL4 fusion protein expression vector were bulk transfected in the 293FT cells using standard transfection techniques.
The day after transfection, cells were plated into 96 well plates, test compound was added and the plates were incubated overnight. Subsequently, the firefly luciferase activity was quantified using luciferase detection reagent and luminescence readout.
Detailed Assay Description
293FT cells (Invitrogen) were transfected with a GAL4 fusion protein expression vector (as described above) and the transcriptional reporter construct (pGL4.35, Promega). 60 μL of TransIT-293 transfection reagent (Mirus Bio) was added drop wise to 1500 μl Opti-MEM I Reduced Serum Medium (Invitrogen) and incubated at room temperature (RT) for 5 to 20 minutes. 1500 μL of this reagent mixture was added to 5 μg of GAL4 fusion protein expression vector and 5 μg of the transcriptional reporter construct, and incubated at RT for 20 minutes.
To harvest 293FT cells from a T75 flask, first the culture medium was taken off the cells. Subsequently, the cells were washed with Phosphate Buffered Saline (PBS) (Lonza), after which the PBS was removed. To dissociate the cells, 1 ml of TrypLE Express (Invitrogen) was added to the flask, followed by incubation at RT until the cells visually started to detach. Cells were collected in 5 mL of assay medium (DMEM culture medium (Lonza), 10% dialyzed FBS (Invitrogen) and Pen/Strep (Lonza)) to achieve a single cell suspension. 10×10^6 cells were spun down and re-suspended in 10 mL of assay medium. Subsequently, the cell suspension was added to the transfection mix tube, and then transferred as a whole to a T75 flask (Greiner), followed by overnight (16-24 hours) incubation at 37° C. and 5% CO2.
For compound screening, the cells were harvested (as described above) and counted. 13×10^6 cells were spun down, the supernatant was aspirated and the cells were re-suspended in 17.3 mL of assay medium obtaining a cell suspension of 0.75×10^6 cells/mL. 80 μL of cell suspension (60,000 cells) was plated per well into a white, flat bottom, tissue culture treated, 96 well screening plates (Greiner).
Test compounds were diluted, starting from a 10 mM dimethylsulfoxide (DMSO) stock solution, to serial dilutions in DMSO at 500× the final test concentration. Subsequently, these solutions were diluted to 5× the final test concentration in two 10-fold-dilution steps in assay medium. The final DMSO concentration of the 5× test compound solution was 1%. […]
Turning to `CN(C(=O)c1ccc(NC(=O)Cc2ccc(S(=O)(=O)CC3CC3)cc2)cc1)C1CCCCC1` [Example 34, N-cyclohexyl-4-[2-(4-cyclopropylmethanesulfonylphenyl)acetamido]-N-methylbenzamide], the IC50 was at most 1000 nM.

`CN(C(=O)c1ccc(NC(=O)Cc2ccc(S(=O)(=O)NC3CC3)cc2)cc1)c1ccccc1` [Example 44, 4-{2-[4-(cyclopropylsulfamoyl)phenyl]acetamido}-N-methyl-N-phenylbenzamide]: the IC50 is at most 100 nM.

As to `CCN(C(=O)c1ccc(NC(=O)Cc2ccc(S(=O)(=O)CC3CC3)cc2)c(OC)c1)c1ccccc1` [Example 101, 4-[2-(4-cyclopropylmethanesulfonylphenyl)acetamido]-N-ethyl-3-methoxy-N-phenylbenzamide], the IC50 was at most 1000 nM. To `O=C(Cc1ccc(S(=O)(=O)CC2CC2)cc1)Nc1ccc(C(=O)N2CCCCC2)cc1` [Example 36, 2-(4-cyclopropylmethanesulfonylphenyl)-N-[4-(piperidine-1-carbonyl)phenyl]acetamide] belongs at most 1000 nM; to `Cc1ccc(N(C(=O)c2ccc(NC(=O)Cc3ccc(S(=O)(=O)CC4CC4)cc3)cc2)C(C)(C)C2CCCO2)cc1` (stereo not shown) [Example 133, 4-[2-(4-cyclopropylmethanesulfonylphenyl)acetamido]-N-(4-methylphenyl)-N-[2-(oxolan-2-yl)propan-2-yl]benzamide], at most 100 nM; to `CCCNC(=O)c1ccc(NC(=O)Cc2ccc(S(=O)(=O)CC3CC3)cc2)cc1` [Example 1, 4-[2-(4-cyclopropylmethanesulfonylphenyl)acetamido]-N-propylbenzamide], at most 1000 nM. On to `CCOC(=O)C1CCCN(C(=O)c2ccc(NC(=O)Cc3ccc(S(=O)(=O)CC4CC4)cc3)cc2)C1` (stereo not shown) [Example 25, ethyl 1-{4-[2-(4-cyclopropylmethanesulfonylphenyl)acetamido]benzoyl}piperidine-3-carboxylate], for which the IC50 is at most 1000 nM. As to `COc1ccccc1N(C)C(=O)c1ccc(NC(=O)Cc2ccc(S(=O)(=O)CC3CC3)cc2)cc1C` [Example 122, 4-[2-(4-cyclopropylmethanesulfonylphenyl)acetamido]-N-(2-methoxyphenyl)-N,2-dimethylbenzamide], the IC50 is at most 10 nM. To `CC(C)(C)N(C(=O)c1ccc(NC(=O)Cc2ccc(S(=O)(=O)CC3CC3)cc2)cc1)c1ccccc1` [Example 130, N-tert-butyl-4-[2-(4-cyclopropylmethanesulfonylphenyl)acetamido]-N-phenylbenzamide] belongs at most 10 nM. To `CCN(Cc1ccccc1)C(=O)c1ccc(NC(=O)Cc2ccc(S(=O)(=O)CC3CC3)cc2)cc1` [Example 42, N-benzyl-4-[2-(4-cyclopropylmethanesulfonylphenyl)acetamido]-N-ethylbenzamide] belongs at most 100 nM. With `CCN(C(=O)c1ccc(NC(=O)Cc2ccc(S(=O)(=O)NC3CC3)cc2)cc1)c1cccc(C(=O)OC)c1` [Example 47, methyl 3-(N-ethyl-4-{2-[4-(cyclopropylsulfamoyl)phenyl]acetamido}benzamido) benzoate], the IC50 was at most 100 nM.

Regarding `CCOC(=O)c1cc2c(s1)CN(C(=O)c1ccc(NC(=O)Cc3ccc(S(=O)(=O)CC4CC4)cc3)cc1)CC2` [Example 33, ethyl 6-{4-[2-(4-cyclopropylmethanesulfonylphenyl)acetamido]benzoyl}-4H,5H,6H,7H-thieno[2,3-c]pyridine-2-carboxylate], the IC50 was at most 1000 nM. Turning to `Cc1ccc(N(C(=O)c2ccc(NC(=O)Cc3ccc(S(=O)(=O)NC4CC4)cc3)cc2)C(C)(C)CO)cc1` [Example 154, 4-{2-[4-(cyclopropylsulfamoyl)phenyl]acetamido}-N-(1-hydroxy-2-methylpropan-2-yl)-N-(4-methylphenyl)benzamide], the IC50 is at most 100 nM. To `CCN(C(=O)c1ccc(NC(=O)Cc2ccc(S(=O)(=O)CC3CC3)cc2)cc1)c1cc(C)nn1C` [Example 88, 4-[2-(4-cyclopropylmethanesulfonylphenyl)acetamido]-N-(1,3-dimethyl-1H-pyrazol-5-yl)-N-ethylbenzamide] belongs at most 10 nM; to `CC(C)CN(C)C(=O)c1ccc(NC(=O)Cc2ccc(S(=O)(=O)CC3CC3)cc2)cc1` [Example 8, 4-[2-(4-cyclopropylmethanesulfonylphenyl)acetamido]-N-methyl-N-(2-methylpropyl)benzamide], at most 1000 nM. For the compound `CCCN(C(=O)c1ccc(NC(=O)Cc2ccc(S(=O)(=O)CC3CC3)cc2)cc1)c1ccccc1` [Example 19, 4-[2-(4-cyclopropylmethanesulfonylphenyl)acetamido]-N-phenyl-N-propylbenzamide], the IC50 is at most 10 nM. Consider `COc1ccccc1N(C)C(=O)c1ccc(NC(=O)Cc2ccc(S(=O)(=O)CC3CC3)cc2)cc1F` [Example 124, 4-[2-(4-cyclopropylmethanesulfonylphenyl)acetamido]-2-fluoro-N-(2-methoxyphenyl)-N-methylbenzamide], for which the IC50 was at most 10 nM. To `CCN(C(=O)c1ccc(NC(=O)Cc2ccc(S(=O)(=O)CC3CC3)cc2)cc1)c1ccccc1` [Example 16, 4-[2-(4-cyclopropylmethanesulfonylphenyl)acetamido]-N-ethyl-N-phenylbenzamide] belongs at most 10 nM; to `Cc1ccc(N(C(=O)c2ccc(NC(=O)Cc3ccc(S(=O)(=O)NC4CC4)cc3)cc2)C(C)(C)C2CCCO2)cc1` (stereo not shown) [Example 132, 4-{2-[4-(cyclopropylsulfamoyl)phenyl]acetamido}-N-(4-methylphenyl)-N-[2-(oxolan-2-yl)propan-2-yl]benzamide], at most 100 nM; to `Cc1cc(NC(=O)Cc2ccc(S(=O)(=O)CC3CC3)cc2)ccc1C(=O)N(C)c1ccccc1F` [Example 165, 4-[2-(4-cyclopropylmethanesulfonylphenyl)acetamido]-N-(2-fluorophenyl)-N,2-dimethylbenzamide], at most 100 nM. As to `CCCN(Cc1ccccc1)C(=O)c1ccc(NC(=O)Cc2ccc(S(=O)(=O)NC3CC3)cc2)cc1` [Example 23, N-benzyl-4-{2-[4-(cyclopropylsulfamoyl)phenyl]acetamido}-N-propylbenzamide], the IC50 was at most 1000 nM. Consider `CCCCN(C(=O)c1ccc(NC(=O)Cc2ccc(S(=O)(=O)CC3CC3)cc2)cc1)c1nccs1` [Example 82, N-butyl-4-[2-(4-cyclopropylmethanesulfonylphenyl)acetamido]-N-(1,3-thiazol-2-yl)benzamide], for which the IC50 was at most 100 nM. To `CCN(C(=O)c1ccc(NC(=O)Cc2ccc(S(=O)(=O)CC3CC3)cc2)cc1Cl)c1cccc(C)c1C` [Example 120, 2-chloro-4-[2-(4-cyclopropylmethanesulfonylphenyl)acetamido]-N-(2,3-dimethylphenyl)-N-ethylbenzamide] belongs at most 100 nM. To `COc1ccccc1N(C)C(=O)c1ccc(NC(=O)Cc2ccc(S(=O)(=O)CC3CC3)cc2)cc1Cl` [Example 125, 2-chloro-4-[2-(4-cyclopropylmethanesulfonylphenyl)acetamido]-N-(2-methoxyphenyl)-N-methylbenzamide] belongs at most 10 nM; to `CN(C(=O)c1ccc(NC(=O)Cc2ccc(S(=O)(=O)CC3CC3)cc2)cc1Cl)c1ccccc1F` [Example 127, 2-chloro-4-[2-(4-cyclopropylmethanesulfonylphenyl)acetamido]-N-(2-fluorophenyl)-N-methylbenzamide], at most 10 nM.

The values above are taken from US10315996B2, “ROR gamma (RORγ) modulators” (LEAD PHARMA HOLDING B.V., priority 2015, dated 2019).
